# Values joined by “and” are separate entries in the source; they are usually repeats but may differ in a detail not shown here. Identical values can stand only once. Active and inactive are the calls of the source. The rule behind the calls is not given here.
# How the values were obtained:
# [1] = test system: Mus musculus; test: Anxiolytic activity in Albino mouse assessed as increase in number of central zone crossing at […], po administered through intragastric tube measured after 40 mins by elevated plus maze test; format: functional, organism-based
# [2] = test system: Mus musculus; test: Anxiolytic activity in Albino mouse assessed as increase in number of open arm entries at […], po administered through intragastric tube measured after 40 mins by elevated plus maze test; format: functional, organism-based
# [3] = test system: Mus musculus; test: Anxiolytic activity in Albino mouse assessed as rapid open arm entry at […], po administered through intragastric tube measured after 40 mins by elevated plus maze test; format: functional, organism-based
# [4] = test system: Mus musculus; test: Effect on memory formation in Albino mouse assessed as memory of negative experience by measuring dark room entry at […], po administered through intragastric tube measured after 7 days by conditioned avoidance test; format: functional, organism-based; settings: time 7.0 day
# [5] = test system: Mus musculus; test: Anxiolytic activity in Albino mouse assessed as increase in time spent in open arm entries at […], po administered through intragastric tube measured after 40 mins by elevated plus maze test; format: functional, organism-based
# [6] = test system: Mus musculus; test: Nootropic activity in Albino mouse assessed as quick escape from restricting factor in aversive environment at […], po administered through intragastric tube measured after 7 days by conditioned avoidance test; format: functional, organism-based; settings: time 7.0 day
# [7] = test system: Mus musculus; test: Anxiolytic activity in Albino mouse assessed as increase in motor activity by measuring increase in number of square crossing at […], po administered through intragastric tube measured after 40 mins by open field test; format: functional, organism-based
# [8] = test system: Mus musculus; test: Antidepressant activity in Albino mouse with social depression assessed as increase in interaction frequency with partner mouse at […], po administered through intragastric tube measured after 40 mins by social interaction test; format: functional, organism-based
# [9] = Toxicity in po dosed female Albino mouse; format: organism-based; settings: in vivo
# [10] = test system: Mus musculus; test: Antidepressant activity in Albino mouse with social depression assessed as increase in time of interaction with partner mouse at […], po administered through intragastric tube measured after 40 mins by social interaction test; format: functional, organism-based
Structure (SMILES),Activity [1],Activity [2],Activity [3],Activity [4],Activity [5],Activity [6],Activity [7],Activity [8],"LD50 ([9]; female, Albino, read-out: LD50)",Activity [10],LD50 ([9]; po)
CC(C)c1c(O)nc(SCCN(C)C)nc1O,Active,Active,Active,Active,Active,inactive,,,,,
CSCCc1c(O)nc(SCCN2CCCC2)[nH]c1=O,Active,Active,Active,inactive,Active,,inactive,,,,
CCN(CC)CCSc1nc(O)c(CCC(C)C)c(=O)[nH]1,,,inactive,inactive,,,Active,,,,
CCCC(C)c1c(O)nc(SCCN(CC)CC)[nH]c1=O.Cl (stereo unspecified),Active,Active,Active,inactive,Active,inactive,,Active,1840 mg/kg and 5720 µmol/kg,Active,
CC(C)CCc1c(O)nc(SCCN2CCCC2)[nH]c1=O,,,inactive,inactive,,,,,,,
CCCC(C)c1c(O)nc(SCCN(C)C)[nH]c1=O (stereo unspecified),Active,Active,Active,inactive,Active,Active,Active,,,,
CC(C)c1c(O)nc(SCCN2CCCCC2)[nH]c1=O,Active,Active,Active,Active,Active,,,,,,
CSCCc1c(O)nc(SCCN(C)C)[nH]c1=O,Active,Active,,inactive,,,inactive,,,,
CCCC(C)c1c(O)nc(SCCN2CCCCC2)[nH]c1=O (stereo unspecified),,Active,inactive,inactive,,,,,,,
CCN(CC)CCSc1nc(O)c(C(C)C)c(O)n1,,,Active,Active,Active,,,,,,
CSCCSc1nc(O)c(C(C)C)c(=O)[nH]1,Active,Active,Active,Active,,inactive,Active,,,,
CC(C)c1c(O)nc(SCCN2CCCC2)[nH]c1=O.Cl,,,,inactive,,,Active,,,,544 mg kg-1 and 1563 umol/Kg
CCCC(C)c1c(O)nc(SCCN2CCCC2)[nH]c1=O (stereo unspecified),Active,Active,,inactive,Active,,inactive,,,,
CSCCc1c(O)nc(SCCN2CCCCC2)[nH]c1=O,Active,Active,,inactive,,inactive,,,,,
CC(C)CCc1c(O)nc(SCCN(C)C)[nH]c1=O,,,,inactive,,inactive,,,,,
CCN(CC)CCSc1nc(O)c(CCSC)c(=O)[nH]1,,,inactive,inactive,,Active,Active,,,,
CC(C)c1c(O)nc(N2CCSCC2)[nH]c1=O,Active,Active,Active,inactive,Active,Active,,,,,
CC(C)CCc1c(O)nc(SCCN2CCCCC2)[nH]c1=O,,,inactive,inactive,,Active,,,,,
